Source: EP4663204A1, “COMPOUNDS USEFUL FOR THE MODULATION OF THE ACTIVITY OF STING” (Sulis Therapeutics ApS, priority 2024, dated 2025)
Entries after “also recorded” stand apart in the source; their conditions may differ.

Assays:
[1] = system: CXCL10, IL-6, MCP-1 (CCL2), MIP-1α (CCL3) and IFN-γ; experiment: Serum cytokine and chemokine levels in mice, with or without LPS (V-Plex immunoassay); type: in vivo; conditions: compound followed by LPS 16 hours later
Protocol: A compound of the invention (Example compound 12; "Ex 12"), or a control S1-L-E compound (control Example compound 7; "Ex 7"), were administered to subjects following the in vivo protocol of Example 1. 16 hours after that administration, some subjects were administered lipopolysaccharide (LPS).
In subjects that received LPS alone, serum levels of CXCL10, IL-6, MCP-1 (CCL2) and MIP-1α (CCL3) were raised 100-1000 fold above the levels in control subjects that received vehicle alone. (In both cases, IFN-γ levels were below the 10 pg/mL threshold of detection.) In subjects that received the compound of the invention, followed by LPS 16 hours later, CXCL10, IL-6, MCP-1 (CCL2) and MIP-1α (CCL3) levels were a further ten-fold higher than the levels in subjects that received LPS alone (see Figure 2). […] IFN-γ levels were only detectable in subjects that had been administered the compound of the invention, with LPS treatment after 16 hours resulting in a further elevation in IFN-γ levels to a small extent. Quantification of cytokines and chemokines was performed on individual serum samples that were stored frozen (≤ -20 °C) after collection, using the electrochemiluminescence-based immunoassay and a custom mouse 5-plex panel according to the manufacturer's instructions (V-Plex assay, Mesoscale Discovery, USA).

STING [2] = target: T1, STING (Homo sapiens, UniProt Q86WV6); experiment: Western Blot analysis for STING degradation in H596, H1650 and HaCat cells; type: cell-based; conditions: 0.22 µM, 0.67 µM, 2 µM and 6 µM, 24h, Figure 4
Protocol: To assess STING degradation in H596 cells (ATCC, HTB-178) cells were seeded at a density of 100.000 cells/well in 24-well Nunclon Delta surface treated culture plate in RPMI-1640 growth medium (supplemented with 10% FBS, 1% Pen-strep). Cells were incubated over-night at 37°C 5% CO2 to allow adhesion. Next day growth medium was renewed and a 5x concentration of test compounds (2.5% DMSO) diluted in growth medium were added to the appropriate well. Final DMSO concentration was 0.5%. Cell culture plates were returned to the incubator for additional 24h. The same protocols were used to grow H1650 and HaCat cells except that cells were seeded at a density of 150,000 cells/well and 250,000 cells/well, respectively
Final test compound concentrations were 0.22 µM, 0.67 µM, 2 µM and 6 µM.
For cell lysis, western blotting and data analysis, the following methods were applied.
For cell lysing for Western Blot analysis cell culture plates were brought to ice, supernatant was removed by aspiration and cells washed 2x in ice-cold DPBS. […] Samples were either analysed directly or stored at -80°C until analysis.
For Western Blotting, total protein concentration in each lysate was determined using PIERCE Gold BCA Assay kit according to manufactures protocol. […]

wild-type STING = target: T2, wild-type STING (Homo sapiens, UniProt Q86WV6); experiment: Western Blot analysis for STING degradation in healthy donor primary fibroblast cells; type: cell-based; conditions: healthy donor fibroblasts; 1 µM; 20 hours; Figure 7
T2 construct: compared to healthy donor primary fibroblast cells; endogenous in cells; host or cells: healthy donor primary fibroblasts
Protocol: (§1) For this study, STING degradation was assessed in primary fibroblast cells with constitutively active STING (comprising a N154S mutation), derived from SAVI patients, and compared to healthy donor primary fibroblast cells.
(§2) Cells were seeded at 50,000 cells/well and cultured under standard conditions for 24 hours. Media was replaced with test compound and incubated for 20 hours prior to analysis.
(§3) Cell culture medium was replaced with fresh medium containing 1 µM Example compound and incubated for 20 hours. For cell lysis and western blotting, the methods described above for HFF-1 cells were applied.

[3] = target: T3, constitutively active STING (comprising a N154S mutation) (Homo sapiens, UniProt Q86WV6, N154S); experiment: Western Blot analysis for STING degradation in SAVI patient primary fibroblast cells; type: cell-based; conditions: SAVI patient fibroblasts (N154S); 1 µM; 20 hours; Figure 7
T3 construct: primary fibroblast cells with constitutively active STING (comprising a N154S mutation), derived from SAVI patients; endogenous in cells; host or cells: SAVI patient primary fibroblasts
Protocol: as §1, §2, §3

[4] = Pharmacokinetic profiling in mouse; type: in vivo; conditions: plasma, sc, mice, subcutaneous injection (8 mg/kg stated for Example compound 12), 8 hours after injection
Protocol: Mice were administered with 8 mg/kg Example compound 12 by subcutaneous injection. Plasma concentration of test compound was measured over the course of 8 hours.

STING [5] = target: T1, STING; experiment: Western Blot analysis for STING recovery following compound washout in HFF-1 cells; type: cell-based; design: To assess STING degradation and recovery in human foreskin fibroblasts HFF-1 cells; host or cells: HFF-1 human foreskin fibroblasts; conditions: 24 hours treatment, 48 hours after washout, Figure 6
Protocol: To assess STING degradation and recovery in human foreskin fibroblasts HFF-1 cells (ATCC, SCRC-1041) cells were seeded at a density of 60.000 cells/well in 24-well Nunclon Delta surface treated culture plate in DMEM growth medium (supplemented with 10% FBS, 1% Pen-strep). Cells were incubated over-night at 37°C 5% CO2 to allow adhesion. Next day growth medium was renewed and a 5x concentration of test compounds (2.5% DMSO) diluted in growth medium were added to the appropriate well. The final DMSO concentration were 0.5%. Cell culture plates were returned to the incubator for additional 24h.
Methods as described above for H596, H1650 and HaCat cells were applied for cell lysis and western blotting. Following 24 hours incubation with the test compounds, cell culture medium containing Example compound was removed, cells washed with fresh medium without Example compound, and incubated in fresh medium without Example compound for the indicated time.

T1 sequence (Q86WV6 whole entry): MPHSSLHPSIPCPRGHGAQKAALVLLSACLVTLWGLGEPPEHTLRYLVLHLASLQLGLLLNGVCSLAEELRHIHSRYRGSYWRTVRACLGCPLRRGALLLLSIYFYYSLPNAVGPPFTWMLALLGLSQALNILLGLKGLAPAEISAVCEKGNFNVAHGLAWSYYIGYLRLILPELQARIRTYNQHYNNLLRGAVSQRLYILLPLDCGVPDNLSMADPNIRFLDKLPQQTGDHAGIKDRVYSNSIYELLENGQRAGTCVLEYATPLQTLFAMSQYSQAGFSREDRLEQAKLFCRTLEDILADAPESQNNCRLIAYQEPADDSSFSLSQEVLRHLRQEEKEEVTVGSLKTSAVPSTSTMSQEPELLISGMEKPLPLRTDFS
T3 sequence (Q86WV6 whole entry N154S): as the sequence (Q86WV6 whole entry) above, with N154S counted along it
T2 sequence (Q86WV6 whole entry): as the sequence (Q86WV6 whole entry) above

## CCn1nc(C)cc1C(=O)N=c1n(C)c2cc(C(N)=O)ccc2n1CCC(CCn1c(=NC(=O)c2cc(C)nn2CC)n(C)c2cc(C(N)=O)ccc21)OCC(=O)NCCOCCOCCOCCOCCC(=O)NCCOCCOCCOCCOCCNc1cccc2c1C(=O)N(C1CCC(=O)NC1=O)C2=O (stereo not drawn) [Example compound 7]
[1]
  CXCL10, IL-6, MCP-1 (CCL2) and MIP-1α (CCL3) levels relative to subjects that received LPS alone: only further elevated to a small extent
STING [2]
  STING degradation: induction of STING degradation; also recorded: induce STING degradation in all cell lines tested at all concentrations tested
wild-type STING
  STING degradation: induce STING degradation
[3]
  STING degradation: induce STING degradation
[4]
  concentration at 8 h: ~100 nM
STING [5]
  STING protein recovery after washout: fail to recover to pre-treatment levels
